Reference: patent US20190375778A1, “ADENOSINE DERIVATIVES FOR USE IN THE TREATMENT OF CANCER” (NuCana plc, priority 2016, published 2019)

How the values were obtained:
Format in all cases: cell-based
K562 = test: CellTiterGlo viability assay, K562; conditions: Homo sapiens, K562, 72 h, read-out: IC50 K562
Procedure, shortened: (§1)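 Cells were treated for about 72 hrs under standard growth conditions with compounds in a 9-point, 3.16-fold titration run in duplicate, with final concentrations from 198 μM down to 19.9 nM in 0.5% DMSO. Viability was then measured by CellTiterGlo.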

RL = test: CellTiterGlo viability assay, RL; conditions: Homo sapiens, RL, 72 h, read-out: IC50 RL
Procedure, shortened: as §1

BxPC-3 = test: CellTiterGlo viability assay, BxPC-3; conditions: Homo sapiens, BXPC-3, 72 h, read-out: IC50 BxPC-3
Protocol: (§2) In vitro viability assay were performed to assess the effects of compounds on cell viability in selected cell lines over ˜72 hrs using the CellTiterGlo (CTG, Promega-G7573) assay. The tests were performed in duplicates with treatment of compounds at 9 points, 3.16 folds titration in 96 well plates over ˜72 hrs. The compound starting concentrations were 198 μM. Cell viability assay using CellTiterGlo in 96-well plate were performed. Compound treatment 72 hrs, standard growth conditions, duplicates. Compounds were dissolved to 40 mM with thawed […]. Compounds were serially diluted at 3.16 fold in thawed DMSO, and warmed to 37° C. before being dissolved in media (2 μl+200 μl). After compounds were dissolved in media, media containing compounds were warmed to 37° C. in incubator and then compounds in media were added to cell plates (50 μl+50 μl) in duplicates. The compounds' final concentrations were from […] to 19.9 nM. All compound solubilities were checked and recorded again, then the plates were transferred to CO2 tissue culture incubator immediately and incubated for 3 days. DMSO final concentration is 0.5%.

MV4-11 = test: CellTiterGlo viability assay, MV4-11; conditions: Homo sapiens, MV4-11, 72 h, read-out: IC50 MV4-11
Procedure, shortened: as §1

Jurkat = test: CellTiterGlo viability assay, Jurkat; conditions: Homo sapiens, 72 h, read-out: IC50 Jurkat
Protocol: as §2

HL-60 = test: CellTiterGlo viability assay, HL-60; conditions: Homo sapiens, HL-60, 72 h, read-out: IC50 HL-60
Procedure, shortened: as §1

human T-lymphocyte CEM = test: Cell proliferation (Coulter count) assay, CEM; conditions: 72 h, read-out: absolute IC50, CEM
Procedure, shortened: (§3)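 Cells grown in DMEM with 10% FBS. HeLa seeded at 10 000 cells/well, compound added after 24 h, counted day 5; L1210 and CEM seeded at 60 000 cells/well with compound, counted after 48 h and 72 h respectively. IC50 is concentration halving proliferation by Coulter count.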

HT29 = test: CellTiterGlo viability assay, HT29; conditions: Homo sapiens, HT-29, 72 h, read-out: IC50 HT29
Protocol: as §2

CCRFCEM = test: CellTiterGlo viability assay, CCRFCEM; conditions: Homo sapiens, CCRF-CEM, 72 h, read-out: IC50 CCRFCEM
Procedure, shortened: as §1

NCI-H929 = test: CellTiterGlo viability assay, NCI-H929; conditions: Homo sapiens, NCI-H929, 72 h, read-out: IC50 NCI-H929
Procedure, shortened: as §1

MOLT-4 = test: CellTiterGlo viability assay, MOLT-4; conditions: Homo sapiens, MOLT-4, 72 h, read-out: IC50 MOLT-4
Protocol: as §2

MiaPaCa-2 = test: CellTiterGlo viability assay, MiaPaCa-2; conditions: Homo sapiens, MIA PaCa-2, 72 h, read-out: IC50 MiaPaCa-2
Protocol: as §2

[1] = test system: human cervix carcinoma HeLa cells; test: Cell proliferation (Coulter count) assay, HeLa; conditions: 120 h, cell count on day 5, read-out: absolute IC50, HeLa
Procedure, shortened: as §3

SW620 = test: CellTiterGlo viability assay, SW620; conditions: Homo sapiens, SW-620, 72 h, read-out: IC50 SW620
Protocol: as §2

Z138 = test: CellTiterGlo viability assay, Z138; conditions: Homo sapiens, Z-138, 72 h, read-out: IC50 Z138
Protocol: as §2

THP-1 = test: CellTiterGlo viability assay, THP-1; conditions: Homo sapiens, THP-1, 72 h, read-out: IC50 THP-1
Protocol: as §2

KG-1 = test: CellTiterGlo viability assay, KG-1; conditions: Homo sapiens, KG-1, 72 h, read-out: IC50 KG-1
Procedure, shortened: as §1

| SMILES | IC50 (K562) [µM] | IC50 (RL) [µM] | IC50 (BxPC-3) [µM] | IC50 (MV4-11) [µM] | IC50 (Jurkat) [µM] | IC50 (HL-60) [µM] | IC50 (human T-lymphocyte CEM) [µM] | IC50 (HT29) [µM] | IC50 (CCRFCEM) [µM] | IC50 (NCI-H929) [µM] | IC50 (MOLT-4) [µM] | IC50 (MiaPaCa-2) [µM] | IC50 [1] [µM] | IC50 (SW620) [µM] | IC50 (Z138) [µM] | IC50 (THP-1) [µM] | IC50 (KG-1) [µM] |
| --- | --- | --- | --- | --- | --- | --- | --- | --- | --- | --- | --- | --- | --- | --- | --- | --- | --- |
| C[C@H](NP(=O)(OC[C@H]1O[C@@H](n2c(Cl)nc3c(N)ncnc32)[C@H](O)[C@@H]1O)Oc1ccccc1)C(=O)OCc1ccccc1 (mixture of isomers) [C, (2S)-Benzyl 2-(((((2R,3S,4R,5R)-5-(6-amino-8-chloro-9H-purin-9-yl)-3,4-dihydroxy-tetrahydrofuran-2-yl)methoxy)(phenoxy)phosphoryl)amino)propanoate] | 15 to 100 | 15 to 100 | 15 to 100 | 0.1 to 5 | 15 to 100 | 5 to 15 | 15 to 100 | 5 to 15 | 5 to 15 | 5 to 15 | 0.1 to 5 | 5 to 15 | 5 to 15 | 15 to 100 | 0.1 to 5 | 15 to 100 | > 100 |
| Nc1ncnc2c1nc(Cl)n2[C@@H]1O[C@H](COP(=O)(NCC(=O)OC2CCCCC2)Oc2ccccc2)[C@@H](O)[C@H]1O (mixture of isomers) [Compound A, Cyclohexyl 2-(((((2R,3S,4R,5R)-5-(6-amino-8-chloro-9H-purin-9-yl)-3,4-dihydroxy-tetrahydrofuran-2-yl)methoxy)(phenoxy)phosphoryl)amino)acetate] | 5 to 15 | 5 to 15 | 15 to 100 | 0.1 to 5 | 15 to 100 | 5 to 15 | 15 to 100 | 15 to 100 | 5 to 15 | 15 to 100 | 15 to 100 | 5 to 15 | 15 to 100 | 15 to 100 | 0.1 to 5 | 15 to 100 | > 100 |
| Nc1ncnc2c1nc(Cl)n2[C@@H]1O[C@H](COP(=O)(NCC(=O)OCc2ccccc2)Oc2ccccc2)[C@@H](O)[C@H]1O (mixture of isomers) [Compound B, Benzyl 2-(((((2R,3S,4R,5R)-5-(6-amino-8-chloro-9H-purin-9-yl)-3,4-dihydroxytetra-hydrofuran-2-yl)methoxy)(phenoxy)phosphoryl)amino)acetate] | 0.1 to 5 | 5 to 15 | 5 to 15 | 0.1 to 5 | 0.1 to 5 | 0.1 to 5 | 5 to 15 | 0.1 to 5 | 0.1 to 5 | 5 to 15 | 0.1 to 5 | 0.1 to 5 | 0.1 to 5 | 0.1 to 5 | 0.1 to 5 | 0.1 to 5 | 0.1 to 5 |
| CC(C)C[C@H](NP(=O)(OC[C@H]1O[C@@H](n2c(Cl)nc3c(N)ncnc32)C(O)C1O)Oc1ccccc1)C(=O)OCc1ccccc1 (stereo partly drawn) [V, 5′-([(Benzyloxy-L-leucin-N-yl)-phenyl]-phosphatyl) 8-chloroadenosine] | 0.1 to 5 | 15 to 100 | 5 to 15 | 0.1 to 5 | 5 to 15 | 5 to 15 | – | 0.1 to 5 | 5 to 15 | 0.1 to 5 | 0.1 to 5 | 0.1 to 5 | 0.1 to 5 | 0.1 to 5 | 0.1 to 5 | 0.1 to 5 | 5 to 15 |
